Literature values as cited in article PMC4043931 (Chembiochem : a European journal of chemical biology, 2014).

Tests used:
Conditions in all cases: listed for comparison; ref [7i], [10]
[1] = system: Klebsiella. pneumoniae (ATCC 13383)
[2] = system: Methicillin-resistant Staphylococcus epidermidis (RP62A)
[3] = system: Pseudomonas aeruginosa (ATCC 27853)
[4] = system: Vancomycin-resistant Enterococcus faecalis (ATCC 700802)
[5] = system: human red blood cells (hRBC's)
[6] = system: Methicillin-resistant Staphylococcus aureus (ATCC 33591)

For Pexiganan, the “MIC K. pneumoniae” value [1] is listed as 8 µg/mL, the “MIC S. epidermidis” value [2] is listed as 8 µg/mL and the “MIC P. aeruginosa” value [3] is listed as 16 µg/mL. For the same substance, the “MIC E. faecalis” value [4] was 32 µg/mL, the “Hemolysis HC50” value [5] was 120 µg/mL and the “MIC S. aureus” value [6] was 16 µg/mL.
